Where two headings read alike, the source gives them in different places.
Experiments:
[1] = test system: A/WSN/33; experiment: microbe, parasite or virus in culture; type: cell-based, influenza virus; settings: unidentified influenza virus, WSN, A549, 24 h; for IC50: read-out: WSN IC50, A549 cells, A/WSN/33 MOI 0.01, 24 h post infection, NP-positive cells; for IC90: read-out: WSN IC90, A549 cells, A/WSN/33 MOI 0.01, 24 h post infection, NP-positive cells
[2] = test system: A549 cells; settings: human
[3] = in vitro; settings: human
[4] = test system: viral M mRNA; experiment: smRNA-FISH of M mRNA in WSN-infected cells; type: cell-based, influenza virus (WSN); settings: 2.5 μM, WSN MOI 2 for 8 h
[5] = test system: HA mRNA; experiment: smRNA-FISH of HA mRNA in WSN-infected cells; type: cell-based, influenza virus (WSN); settings: 2.5 μM, WSN MOI 2 for 8 h
[6] = test system: NS mRNA; experiment: smRNA-FISH of NS mRNA in WSN-infected cells; type: cell-based, influenza virus (WSN); settings: 2.5 μM, WSN MOI 2 for 8 h
[7] = test system: bulk cellular poly(A) RNA; experiment: RNA-FISH of poly(A) RNA in uninfected cells; type: cell-based, Human; settings: 2.5 μM
[8] = test system: cellular GAPDH mRNA; experiment: smRNA-FISH of GAPDH mRNA in uninfected cells; type: cell-based, Human; settings: 2.5 μM
[9] = test system: M1 to M2 splicing; type: cell-based, influenza virus (WSN); settings: 1 μM or 2.5 μM, WSN MOI 2 for 8 h
[10] = test system: NS1 to NS2 splicing; experiment: qPCR of relative ratio of NS2 to NS1 mRNAs; type: cell-based, influenza virus (WSN); settings: 1 μM or 2.5 μM, WSN MOI 2 for 8 h
[11] = test system: cellular ATP levels; experiment: Cellular ATP levels (CellTiter-Glo); type: cell-based; settings: 2.5 μM, 24 h
Method: FIG. 30 depicts cellular ATP levels measured in cells treated with 0.1% DMSO or 2.5 μM of compound 2 at 24 h. Four independent experiments were performed and each contained 6 technical replicates.
ATP was measured by luminescence using the CellTiter-Glo kit (Promega) according to the manufacturer's instructions.

[12] = test system: cellular RNAs; experiment: Cell fractionation and RNAseq of poly(A) RNA; type: cell-based, human; settings: 2.5 μM, 9 hours, cutoff 1.5-fold
[13] = test system: viral proteins (M1, M2, NA, HA); type: cell-based, A/WSN33
[14] = test system: A/WSN/33 (H1N1); type: cell-based, influenza A virus
[15] = test system: A/Vietnam/1203/04 (H5N1); type: cell-based, influenza A virus
[16] = test system: A/Panama/99 (H3N2); type: cell-based, influenza A virus
[17] = test system: A/WSN/33; type: cell-based, influenza virus
[18] = test system: primary human bronchial epithelial cells (HBEC); experiment: Cell viability of primary human bronchial epithelial cells (CellTiter-Glo); type: cell-based; settings: 24 h
Method: FIG. 38 depicts compound 2 inhibiting influenza virus replication in primary human bronchial epithelial cells at non-toxic concentrations. […] (B) Cell viability was monitored at 24 h after treatment with 0.1% DMSO or compound 2 at the depicted concentrations using CellTiter-Glo. Three independent experiments were performed.

[19] = test system: A549 cells; experiment: MTT cytotoxicity assay

For `Cn1c(SCC(=O)Nc2ccc(Br)cn2)nc2ccccc21` [Compound 1], the IC50 [1] was 1.89 µM, the IC90 [1] was 12.1 µM and the “24 h MTT CC10” value [2] was 1.417 µM. The CC50 [3] was over 50 µM.

In the case of `O=C(CSc1nc2ccccc2[nH]1)Nc1ccc(Br)cn1` [Compound 2, 2-((1H-benzo[d]imidazol-2-yl)thio)-N-(5-bromopyridin-2-yl)acetamide], the IC50 [1] is reported as 3.18 µM, the IC90 [1] is reported as 16.9 µM and the “nuclear export of viral M mRNA” value [4] is reported as “robustly inhibited”. The “total M mRNA fluorescence intensity” value [4] was “did not alter”, the “nuclear export of HA mRNA” value [5] was “robustly inhibited” and the “nuclear retention of NS mRNA” value [6] was “weak nuclear retention”. The “total levels of the NS mRNA” value [6] was “not altered”, the “poly(A) RNA nuclear to cytoplasmic ratio” value [7] was “slightly decreased” and the “total levels of bulk cellular poly(A) RNA” value [7] was “did not affect”. For the same molecule, the “GAPDH mRNA nuclear to cytoplasmic distribution” value [8] was “not affected”, the “total levels of cellular GAPDH mRNA” value [8] was “slightly decreased” and the “M1 to M2 splicing (relative ratio of M2 to M1 mRNAs)” value [9] was “No effect”. The “NS1 to NS2 splicing” value [10] was “slightly inhibited”, the “cellular ATP levels as a surrogate for cytotoxicity” value [11] was “no significant change” and the mRNAs down-regulated [12] was 829 mRNAs. The “mRNAs more cytoplasmic compared to control cells” value [12] was 98 mRNAs, the “mRNAs preferentially retained in the nucleus” value [12] was 96 mRNAs and the mRNAs up-regulated [12] was 103 mRNAs. For the same molecule, the “mRNAs with altered nuclear to cytoplasmic distribution” value [12] was 194 mRNAs, the “levels of the viral M1 and M2 proteins as well as NA and HA proteins” value [13] was “decrease” and the “IC50 in plaque assay relative to NP assay (less)” value [14] was about 2 fold. The “viral replication (viral titer)” value [14] was “inhibited”, the “viral replication (viral titer)” value ([15]; A549 cells, MOI 0.01, 24 h) was “inhibited” and the “IC50 in plaque assay relative to NP assay (less)” value ([15]; A/Vietnam/1203/04, plaque assay vs NP assay) was about 2 fold. The “IC50 in plaque assay relative to NP assay (less)” value [16] was about 2 fold, the “viral replication (viral titer)” value [16] was “inhibited” and the “viral replication in primary human bronchial epithelial cells” value [17] was “inhibited”. For the same molecule, the “cell viability of HBEC” value [18] was “non-toxic”, the CC50 at 24 h ([3]; A549 cells) was over 50 µM and the “24 h MTT CC10” value ([19]; 24 h, concurrent with immunostaining) was 5.839 µM. The “cell viability at concentrations inhibiting replication” value ([19]; MTT, 24 h or 48 h) was “did not significantly alter”.

For `Cc1cccc2[nH]c(SCC(=O)Nc3ccc(Br)cn3)nc12` [Compound 3], the IC50 [1] was 4.94 µM, the IC90 [1] was 10 µM and the “24 h MTT CC10” value [2] was 0.683 µM. The CC50 [3] was over 50 µM.

In the case of `O=C(CSc1nc2ccccc2[nH]1)Nc1ccc(Br)cc1` [Compound 4], the IC50 [1] is reported as over 50 µM, the IC90 [1] is reported as over 50 µM and the “24 h MTT CC10” value [2] is reported as over 50 µM. It also gave a CC50 [3] of over 50 µM.

With `NC(=O)CSc1nc2ccccc2[nH]1` [Compound 5] the IC50 [1] was over 50 µM, the IC90 [1] was over 50 µM and the “24 h MTT CC10” value [2] was over 50 µM. It also gave a CC50 [3] of over 50 µM.

In the case of `O=C(CS(=O)(=O)c1nc2ccccc2[nH]1)Nc1ccc(Br)cn1` [Compound 6], the IC50 [1] is reported as 22.6 µM, the IC90 [1] is reported as over 50 µM and the “24 h MTT CC10” value [2] is reported as 23.361 µM. For the same molecule, the CC50 [3] was over 50 µM.

In the case of `O=C(C[S+]([O-])c1nc2ccccc2[nH]1)Nc1ccc(Br)cn1` (centres unmarked) [Compound 7], the IC50 [1] is reported as 11.9 µM, the IC90 [1] is reported as over 50 µM and the “24 h MTT CC10” value [2] is reported as 31.074 µM. For the same molecule, the CC50 [3] was over 50 µM.

For `O=C(CSc1nc2ccccc2[nH]1)NCc1ccccn1` [Compound 8], the IC50 [1] was over 50 µM, the IC90 [1] was over 50 µM and the “24 h MTT CC10” value [2] was over 50 µM. For the same molecule, the CC50 [3] was over 50 µM.

For `O=C(CSc1nc2ccccc2[nH]1)NCc1ccccc1` [Compound 9], the IC50 [1] was over 50 µM, the IC90 [1] was over 50 µM and the “24 h MTT CC10” value [2] was over 50 µM. For the same molecule, the CC50 [3] was over 50 µM.

For `O=C(CSc1nc2ccccc2[nH]1)NC1CCCCC1` [Compound 10], the IC50 [1] was over 50 µM, the IC90 [1] was over 50 µM and the “24 h MTT CC10” value [2] was over 50 µM. The CC50 [3] was over 50 µM.

In the case of `O=C(CSc1nc2ccccc2[nH]1)Nc1ccccn1` [Compound 11], the IC50 [1] is reported as over 50 µM, the IC90 [1] is reported as over 50 µM and the “24 h MTT CC10” value [2] is reported as over 50 µM. The CC50 [3] was over 50 µM.

For `CC(Sc1nc2ccccc2[nH]1)C(=O)Nc1ccc(Br)cn1` (centres unmarked) [Compound 12], the IC50 [1] was over 50 µM, the IC90 [1] was over 50 µM and the “24 h MTT CC10” value [2] was over 50 µM. It also gave a CC50 [3] of over 50 µM.

With `COc1ccc(C2C(CC(C)C(=O)Nc3ccc(Br)cn3)=Cc3ccccc32)cc1` (centres unmarked) [Compound 14] the IC50 [1] was over 50 µM, the IC90 [1] was over 50 µM and the “24 h MTT CC10” value [2] was 15.941 µM. For the same molecule, the CC50 [2] was over 50 µM.

For `Cc1ccc(NC(=O)CCc2nc3ccccc3o2)nc1` [Compound 15], the IC50 [1] was 30.7 µM, the IC90 [1] was over 50 µM and the “24 h MTT CC10” value [2] was over 50 µM. For the same molecule, the CC50 [2] was over 50 µM.

Reference: patent publication US20220073495A1 (priority 2020, published 2022)
